Test results: patent US10988523B2, “Modified lipidated Relaxin B chain peptides and their therapeutic use” (Sanofi, priority 2018, dated 2021)
*1 amine or outer side, *2 acyl side, *3 side chain or, on linkers, in order; H or OH if unused. Where a SMILES comes first, the peptide text is derived from it. Side-chain parts run from the residue outwards. [ ]: non-standard residue; d: D form. The star is where a group is joined. γGlu = O=C(O)[C@H](CCC(=O)[*:2])N[*:1]; Stearoyl = CCCCCCCCCCCCCCCCCC(=O)*; Palmitoyl = CCCCCCCCCCCCCCCC(=O)*; Nle = CCCC[C@H](N)C(=O)O; AEEA = NCCOCCOCC(=O)O; Aib = CC(C)(N)C(=O)O

Target: T1, RXFP1 (Homo sapiens, UniProt Q9HBX9)
T1 construct: OVCAR5 cells expressing endogenous RXFP1; endogenous in cells; host or cells: OVCAR5 cells
T1 sequence (Q9HBX9 1-757): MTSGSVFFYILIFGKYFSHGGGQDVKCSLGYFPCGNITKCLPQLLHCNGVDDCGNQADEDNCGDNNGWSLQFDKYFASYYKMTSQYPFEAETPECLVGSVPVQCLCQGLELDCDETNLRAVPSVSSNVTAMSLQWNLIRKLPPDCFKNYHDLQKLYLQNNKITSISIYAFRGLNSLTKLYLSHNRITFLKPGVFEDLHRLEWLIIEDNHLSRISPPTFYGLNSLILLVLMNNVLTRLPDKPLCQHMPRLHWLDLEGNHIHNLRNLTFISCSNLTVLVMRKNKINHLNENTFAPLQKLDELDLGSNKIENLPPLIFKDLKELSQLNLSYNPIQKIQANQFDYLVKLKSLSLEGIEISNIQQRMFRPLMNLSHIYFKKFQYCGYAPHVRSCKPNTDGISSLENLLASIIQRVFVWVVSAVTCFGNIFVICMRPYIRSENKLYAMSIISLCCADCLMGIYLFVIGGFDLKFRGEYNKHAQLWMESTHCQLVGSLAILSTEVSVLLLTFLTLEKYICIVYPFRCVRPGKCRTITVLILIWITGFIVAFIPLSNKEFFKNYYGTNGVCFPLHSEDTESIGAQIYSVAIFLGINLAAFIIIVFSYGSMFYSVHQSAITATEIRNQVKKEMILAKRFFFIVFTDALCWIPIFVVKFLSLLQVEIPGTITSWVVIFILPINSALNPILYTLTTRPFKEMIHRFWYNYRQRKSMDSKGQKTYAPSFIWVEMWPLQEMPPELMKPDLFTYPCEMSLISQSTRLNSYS
Test: OVCAR5 cAMP assay (HTRF), RXFP1 agonist activity
Assay type: cell-based
Conditions: for Emax: OVCAR-5, maximal cAMP relative to H2-relaxin maximum (100%), read-out: EMax, OVCAR 5 cells (cAMP); for EC50: OVCAR5 cells, cAMP HTRF, read-out: EC50 (nM), OVCAR 5 cells (cAMP)
Outline: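 cAMP accumulation readout: after 1 mM IBMX for 40 min, endogenous-RXFP1 OVCAR5 cells got rising peptide concentrations without FCS, 30 min, 37° C, then lysis with HTRF cAMP reagents. Nonlinear regression gave EC50; Emax expressed relative to H2-relaxin maximum, same occasion.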

Row | SMILES | Emax [%] | EC50 [nM]
1 | CCCCCCCCCCCCCCCC(=O)N[C@@H](CCC(=O)N[C@@H](CCC(=O)N[C@@H](CCC(=O)NCCOCCOCC(=O)NCCCC[C@H](NC(=O)[C@H](CCCCN)NC(=O)[C@H](CCCNC(=N)N)NC(=O)C(C)(C)NC(=O)[C@H](CO)NC(=O)[C@H](Cc1c[nH]c2ccccc12)NC(=O)[C@@H](NC(=O)[C@H](CO)NC(=O)[C@H](CCCC)NC(=O)CNC(=O)[C@H](CCC(=O)O)NC(=O)C(C)(C)NC(=O)C(C)(C)NC(=O)[C@@H](NC(=O)[C@H](CCC(N)=O)NC(=O)[C@H](C)NC(=O)[C@H](CCCNC(=N)N)NC(=O)[C@@H](NC(=O)[C@H](CCCCN)NC(=O)[C@H](CCC(=O)O)NC(=O)[C@H](CCCNC(=N)N)NC(=O)CNC(=O)[C@H](CCC(=O)O)NC(=O)[C@H](CC(C)C)NC(C)=O)C(C)C)[C@@H](C)CC)[C@@H](C)O)C(N)=O)C(=O)O)C(=O)O)C(=O)O [compound 55] (Ac-LEGREKVRAQI[Aib][Aib]EG[Nle]STWS[Aib]RKK([AEEA-γGlu-γGlu-γGlu-Palmitoyl])-NH2) | 94 | –
2 | CCCCCCCCCCCCCCCCCC(=O)N[C@@H](CCC(=O)NCCOCCOCC(=O)NCCOCCOCC(=O)NCCCC[C@H](NC(=O)[C@H](CCCCN)NC(=O)[C@H](CCCNC(=N)N)NC(=O)C(C)(C)NC(=O)[C@H](CO)NC(=O)[C@H](Cc1c[nH]c2ccccc12)NC(=O)[C@@H](NC(=O)[C@H](CO)NC(=O)[C@H](CCCC)NC(=O)CNC(=O)[C@H](CCC(=O)O)NC(=O)C(C)(C)NC(=O)C(C)(C)NC(=O)[C@@H](NC(=O)[C@H](CCC(N)=O)NC(=O)[C@H](C)NC(=O)[C@H](CCCNC(=N)N)NC(=O)[C@@H](NC(=O)[C@H](CCCCN)NC(=O)[C@H](CCC(=O)O)NC(=O)[C@H](CCCNC(=N)N)NC(=O)CNC(=O)[C@H](CCC(=O)O)NC(=O)[C@H](CC(C)C)NC(C)=O)C(C)C)[C@@H](C)CC)[C@@H](C)O)C(N)=O)C(=O)O [compound 56] (Ac-LEGREKVRAQI[Aib][Aib]EG[Nle]STWS[Aib]RKK([AEEA-AEEA-γGlu-Stearoyl])-NH2) | 95 | –
3 | CCCCCCCCCCCCCCCC(=O)N[C@@H](CCC(=O)N[C@@H](CCC(=O)NCCOCCOCC(=O)NCCOCCOCC(=O)NCCCC[C@H](NC(=O)[C@H](CCCCN)NC(=O)[C@H](CCCNC(=N)N)NC(=O)C(C)(C)NC(=O)[C@H](CO)NC(=O)[C@H](Cc1c[nH]c2ccccc12)NC(=O)[C@@H](NC(=O)[C@H](CO)NC(=O)[C@H](CCCC)NC(=O)CNC(=O)[C@H](CCC(=O)O)NC(=O)C(C)(C)NC(=O)C(C)(C)NC(=O)[C@@H](NC(=O)[C@H](C)NC(=O)[C@H](C)NC(=O)[C@H](CCCNC(=N)N)NC(=O)[C@@H](NC(=O)[C@H](CCCCN)NC(=O)[C@H](CCC(=O)O)NC(=O)[C@H](CCCNC(=N)N)NC(=O)CNC(=O)[C@H](CCC(=O)O)NC(=O)[C@H](CC(C)C)NC(=O)[C@H](CCC(=O)O)NC(C)=O)C(C)C)[C@@H](C)CC)[C@@H](C)O)C(N)=O)C(=O)O)C(=O)O [compound 57] (Ac-ELEGREKVRAAI[Aib][Aib]EG[Nle]STWS[Aib]RKK([AEEA-AEEA-γGlu-γGlu-Palmitoyl])-NH2) | 93 | 4.4
4 | CCCCCCCCCCCCCCCC(=O)N[C@@H](CCC(=O)N[C@@H](CCC(=O)N[C@@H](CCC(=O)NCCOCCOCC(=O)NCCOCCOCC(=O)NCCCC[C@H](NC(=O)[C@H](CCCCN)NC(=O)[C@H](CCCNC(=N)N)NC(=O)C(C)(C)NC(=O)[C@H](CO)NC(=O)[C@H](Cc1c[nH]c2ccccc12)NC(=O)[C@@H](NC(=O)[C@H](CO)NC(=O)[C@H](CCCC)NC(=O)CNC(=O)[C@H](CCC(=O)O)NC(=O)C(C)(C)NC(=O)C(C)(C)NC(=O)[C@@H](NC(=O)[C@H](CCCCNC(C)=O)NC(=O)[C@H](C)NC(=O)[C@H](CCCNC(=N)N)NC(=O)[C@@H](NC(=O)[C@H](CCCCN)NC(=O)[C@H](CCC(=O)O)NC(=O)[C@H](CCCNC(=N)N)NC(=O)CNC(=O)[C@H](CCC(=O)O)NC(=O)[C@H](CC(C)C)NC(C)=O)C(C)C)[C@@H](C)CC)[C@@H](C)O)C(N)=O)C(=O)O)C(=O)O)C(=O)O [compound 59] (Ac-LEGREKVRAK(Ac)I[Aib][Aib]EG[Nle]STWS[Aib]RKK([AEEA-AEEA-γGlu-γGlu-γGlu-Palmitoyl])-NH2) | 85 | –
5 | CCCCCCCCCCCCCCCC(=O)N[C@@H](CCC(=O)N[C@@H](CCC(=O)N[C@@H](CCC(=O)NCCOCCOCC(=O)NCCOCCOCC(=O)NCCCC[C@H](NC(=O)[C@H](CCCCN)NC(=O)[C@H](CCCCN)NC(=O)[C@H](CCCNC(=N)N)NC(=O)C(C)(C)NC(=O)[C@H](CO)NC(=O)[C@H](Cc1c[nH]c2ccccc12)NC(=O)[C@@H](NC(=O)[C@H](CO)NC(=O)[C@H](CCCC)NC(=O)CNC(=O)[C@H](CCC(=O)O)NC(=O)C(C)(C)NC(=O)C(C)(C)NC(=O)[C@@H](NC(=O)[C@H](CCCCNC(C)=O)NC(=O)[C@H](C)NC(=O)[C@H](CCCNC(=N)N)NC(=O)[C@@H](NC(=O)[C@H](CCCCN)NC(=O)[C@H](CCC(=O)O)NC(=O)[C@H](CCCNC(=N)N)NC(=O)CNC(=O)[C@H](CCC(=O)O)NC(=O)[C@H](CC(C)C)NC(C)=O)C(C)C)[C@@H](C)CC)[C@@H](C)O)C(N)=O)C(=O)O)C(=O)O)C(=O)O [compound 60] (Ac-LEGREKVRAK(Ac)I[Aib][Aib]EG[Nle]STWS[Aib]RKKK([AEEA-AEEA-γGlu-γGlu-γGlu-Palmitoyl])-NH2) | 91 | 0.11
6 | CCCCCCCCCCCCCCCC(=O)N[C@@H](CCC(=O)N[C@@H](CCC(=O)N[C@@H](CCC(=O)NCCOCCOCC(=O)NCCOCCOCC(=O)NCCCC[C@H](NC(=O)[C@H](CCCCN)NC(=O)[C@H](CCCCN)NC(=O)[C@H](CCCNC(=N)N)NC(=O)C(C)(C)NC(=O)[C@H](CO)NC(=O)[C@H](Cc1c[nH]c2ccccc12)NC(=O)[C@@H](NC(=O)[C@H](CO)NC(=O)[C@H](CCCCNC(C)=O)NC(=O)CNC(=O)[C@H](CCC(=O)O)NC(=O)C(C)(C)NC(=O)C(C)(C)NC(=O)[C@@H](NC(=O)[C@H](CCCCNC(C)=O)NC(=O)[C@H](C)NC(=O)[C@H](CCCNC(=N)N)NC(=O)[C@@H](NC(=O)[C@H](CCCCN)NC(=O)[C@H](CCC(=O)O)NC(=O)[C@H](CCCNC(=N)N)NC(=O)CNC(=O)[C@H](CCC(=O)O)NC(=O)[C@H](CC(C)C)NC(C)=O)C(C)C)[C@@H](C)CC)[C@@H](C)O)C(N)=O)C(=O)O)C(=O)O)C(=O)O [compound 61] (Ac-LEGREKVRAK(Ac)I[Aib][Aib]EGK(Ac)STWS[Aib]RKKK([AEEA-AEEA-γGlu-γGlu-γGlu-Palmitoyl])-NH2) | 93 | 0.17
7 | CCCCCCCCCCCCCCCC(=O)N[C@@H](CCC(=O)N[C@@H](CCC(=O)N[C@@H](CCC(=O)NCCOCCOCC(=O)NCCOCCOCC(=O)NCCCC[C@H](NC(=O)[C@H](CCCCNC(C)=O)NC(=O)[C@H](CCCCN)NC(=O)[C@H](CCCNC(=N)N)NC(=O)C(C)(C)NC(=O)[C@H](CO)NC(=O)[C@H](Cc1c[nH]c2ccccc12)NC(=O)[C@@H](NC(=O)[C@H](CO)NC(=O)[C@H](CCCC)NC(=O)CNC(=O)[C@H](CCC(=O)O)NC(=O)C(C)(C)NC(=O)C(C)(C)NC(=O)[C@@H](NC(=O)[C@H](CCCCNC(C)=O)NC(=O)[C@H](C)NC(=O)[C@H](CCCNC(=N)N)NC(=O)[C@@H](NC(=O)[C@H](CCCCN)NC(=O)[C@H](CCC(=O)O)NC(=O)[C@H](CCCNC(=N)N)NC(=O)CNC(=O)[C@H](CCC(=O)O)NC(=O)[C@H](CC(C)C)NC(C)=O)C(C)C)[C@@H](C)CC)[C@@H](C)O)C(N)=O)C(=O)O)C(=O)O)C(=O)O [compound 62] (Ac-LEGREKVRAK(Ac)I[Aib][Aib]EG[Nle]STWS[Aib]RKK(Ac)K([AEEA-AEEA-γGlu-γGlu-γGlu-Palmitoyl])-NH2) | 87 | –
8 | CCCCCCCCCCCCCCCC(=O)N[C@@H](CCC(=O)N[C@@H](CCC(=O)N[C@@H](CCC(=O)NCCOCCOCC(=O)NCCOCCOCC(=O)NCCOCCOCC(=O)NCCOCCOCC(=O)NCCCC[C@H](NC(=O)[C@H](CCCCNC(C)=O)NC(=O)[C@H](CCCCN)NC(=O)[C@H](CCCNC(=N)N)NC(=O)C(C)(C)NC(=O)[C@H](CO)NC(=O)[C@H](Cc1c[nH]c2ccccc12)NC(=O)[C@@H](NC(=O)[C@H](CO)NC(=O)[C@H](CCCC)NC(=O)CNC(=O)[C@H](CCC(=O)O)NC(=O)C(C)(C)NC(=O)C(C)(C)NC(=O)[C@@H](NC(=O)[C@H](CCCCNC(C)=O)NC(=O)[C@H](C)NC(=O)[C@H](CCCNC(=N)N)NC(=O)[C@@H](NC(=O)[C@H](CCCCN)NC(=O)[C@H](CCC(=O)O)NC(=O)[C@H](CCCNC(=N)N)NC(=O)CNC(=O)[C@H](CCC(=O)O)NC(=O)[C@H](CC(C)C)NC(C)=O)C(C)C)[C@@H](C)CC)[C@@H](C)O)C(N)=O)C(=O)O)C(=O)O)C(=O)O [compound 64] (Ac-LEGREKVRAK(Ac)I[Aib][Aib]EG[Nle]STWS[Aib]RKK(Ac)K([AEEA-AEEA-AEEA-AEEA-γGlu-γGlu-γGlu-Palmitoyl])-NH2) | 81 | 0.2
